# Results published in publication PMC12284294 (iScience, 2025).
# “Also recorded” adds a separate entry of the source. Peptide text beside a SMILES is read from it.
# Columns and labels:
# [1] = test system: MMP-9 release of isolated PMNs; type: cell-based, human; details: activator mix 3 μM with MPR peptide, n = 5
# [2] = test system: neutrophils; type: cell-based, human
# [3] = test system: human polymorphonuclear granulocytes (PMN; neutrophils); type: cell-based; details: mix at 3 μM, 1 μM, 0.3 μM; MPR peptide 10 μM co-applied, n = 3
# [4] = test system: human FPR2; type: cell-based; details: MPR peptides 30 μM, n = 3
# [5] = test system: ERK1/2 phosphorylation via FPR1; assay: ERK1/2 phosphorylation assay in FPR1-transfected HEK293T cells; type: cell-based, human; details: MPR peptide 10 μM, 15 min
# Procedure: 300.000 cells were seeded in each well of an uncoated 12-well plate. After 30 min settling time on ice, cells were treated with the respective stimulants and incubated at 37°C, 5% CO2 for 15 min. Cells were subsequently washed with 500 μL PBS and then lysed with 250 μL protein extraction buffer (50 mM Tris-HCl pH 8.0, 5 mM EDTA, 150 mM NaCl, 0.5% [v/v] Triton-X, 5 mM DTT, Roche complete protease inhibitor) for 5 min on ice. Lysates were then placed into protein low bind tubes (Eppendorf) and treated for 20 min in an ultrasonic bath. Samples were centrifuged at 4°C, 12.000 rpm for 20 min to remove debris. Supernatants were collected and stored at −20°C until further use. Protein concentrations were determined using ROTINanoquant in a F[…] multimode reader. Samples were mixed with LDS sample buffer and NuPAGE reduction agent and subsequently heated at 70°C for 10 min 20 μg of each sample were loaded onto a 10% Bis-Tris gel. SDS-PAGE was performed at […] for 40 min. Proteins were blotted onto nitrocellulose membranes using a Wet Tank blotting system at 350 mA for 60 min. Transfer was controlled by Ponceau S staining. Membranes were then blocked with 3% BSA and 0.1% Tween 20 in PBS (PBST) for 60 min. […] Detection of luminescence signals was performed with ECL Prime Kit in a LumiImager. […] Signals of actin staining were measured as described above. […]
# [6] = test system: human FPR3; type: cell-based; details: MPR peptides 30 μM, n = 3
# [7] = biological target: T1, FPR1 (Homo sapiens, UniProt P21462); assay: cell-based; type: binding
# T1 construct: expressed in transfected cells; host or cells: HEK293T
# T1 sequence (P21462 1-350): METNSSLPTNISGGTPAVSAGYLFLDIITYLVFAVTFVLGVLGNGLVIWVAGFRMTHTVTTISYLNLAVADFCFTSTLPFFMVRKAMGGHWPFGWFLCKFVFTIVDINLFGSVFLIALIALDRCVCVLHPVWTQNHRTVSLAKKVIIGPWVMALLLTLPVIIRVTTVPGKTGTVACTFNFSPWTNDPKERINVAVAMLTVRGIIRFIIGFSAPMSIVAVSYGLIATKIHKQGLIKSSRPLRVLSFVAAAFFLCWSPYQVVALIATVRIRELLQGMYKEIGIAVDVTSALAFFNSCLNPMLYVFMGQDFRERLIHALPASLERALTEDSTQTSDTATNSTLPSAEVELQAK
# [8] = test system: neutrophil-like differentiated HL-60 cells (dHL-60); type: cell-based, human; details: CV peptides 10 μM, n = 3–5
# [9] = test system: FPR2; details: cited from earlier work
# Text: (§1) Besides viral peptides that interact with FPR1 and FPR2, we identified a large novel group of FPR3 specific viral activators - a receptor for which very few biological relevant activators have been described yet,[53]^,[72] leaving much room for speculations about its major biological function.[1]^,[2] In contrast to FPR1 and FPR2, for which a large panel of receptor subtype-selective ligands have been described, only two biological relevant agonists with a known preference for FPR3 were identified. One is the mitochondrial-derived neuroprotective peptide Humanin[51]^,[52]^,[73] that binds to F ...
# [10] = test system: FPR3; details: cited from earlier work
# Text: as §1
compound,measurement,setting,value
CC[C@H](C)[C@H](NC(=O)[C@H](Cc1ccc(O)cc1)NC(=O)[C@@H](NC(=O)[C@@H](N)CCC(=O)O)[C@@H](C)O)C(=O)N[C@@H](CCCCN)C(=O)N[C@@H](Cc1c[nH]c2ccccc12)C(=O)N1CCC[C@H]1C(=O)N[C@@H](Cc1c[nH]c2ccccc12)C(=O)N[C@@H](Cc1c[nH]c2ccccc12)C(=O)N[C@H](C(=O)N[C@@H](Cc1c[nH]c2ccccc12)C(=O)N[C@@H](CC(C)C)C(=O)O)C(C)C [CV1],effect on activator-mix-triggered MMP-9 release,[1],attenuated
same,inhibition of the migratory response to the activator peptide mix,"[2]; MPR peptide 10 μM co-applied, n = 5",near complete inhibition
same,effect on activator-mix-induced calcium flux in neutrophils,[3],calcium flux suppression
CSCC[C@H](N)C(=O)N[C@@H](Cc1ccc(O)cc1)C(=O)N[C@H](C(=O)N[C@@H](CCCCN)C(=O)N[C@@H](Cc1c[nH]c2ccccc12)C(=O)N1CCC[C@H]1C(=O)N[C@@H](Cc1c[nH]c2ccccc12)C(=O)N[C@@H](Cc1ccc(O)cc1)C(=O)N[C@H](C(=O)N[C@@H](Cc1c[nH]c2ccccc12)C(=O)N[C@@H](CC(C)C)C(=O)O)C(C)C)C(C)C [CV2*] (H-MYVKWPWYVWL-OH; N-terminus and C-terminus assumed),calcium levels in FPR2 transfected cells,[4],strongest
same,ERK signaling via FPR1,[5],triggers
same,calcium response of FPR3-transfected cells,[6],responded; also recorded: strongest; also recorded: FPR3 activation
same,neutrophil migration,"[2]; MPR peptide 10 μM, 90 min, n = 3-5",triggers
same,"binding affinity for FPR1, FPR2, and FPR3, fold lower than the other MPR peptides",[7],approximately 10 fold
same,calcium signal in dHL-60 cells,[8],positive calcium flux
F2L: acetylated 21mer N-terminal cleavage product of heme-binding-protein-1,concentrations that activate FPR2,[9],low micromolar
same,concentrations that activate FPR3,[10],low nanomolar
